Experimental data as given in US20200023073A1, “A NEW DRUG DELIVERY SYSTEM FOR TREATMENT OF DISEASE” (SINTEF TTO AS, priority 2016, published 2020).

Test system: MDA-MB-231 cells
Assay: AlamarBlue Cell Viability Assay
Assay type: cell-based, human
Conditions: MDA-MB-231, various concentrations, 24, 48 and 72 hours
Method: The cytotoxic effect of empty PBCA NPs, PBCA NPs with encapsulated cabazitaxel as well as free cabazitaxel was studied on breast cancer cells (MDA-MB-231 cells=human epithelial, mammary adenocarcinoma cell line). AlamarBlueR Cell Viability Assay was used to evaluate cell viability. Cells were seeded in density 5000 cells/200 μl medium for each well. After 3 days old medium was removed from wells and both encapsulated cabazitaxel and free cabazitaxel was diluted in medium and added to the well. Concentration of NPs was ranged from 0.1 ng/ml to 1000 ng/ml. Concentrations of free cabazitaxel was chosen to match the concentrations of cabazitaxel in NPs. Control wells contained cells in growth medium.
The well plates were incubated for 24, 48 and 72 hours at 37° C. and 5% CO2, before the medium was removed from the well followed by 3 times washing with fresh growth medium. Growth medium containing 10% of alamar Blue assay was added into each well and the plates incubated for another 3 hours at 37° C. and 5% CO2, and the fluorescence intensity measured by microplate reader (excitation/emission at 550/590 nm).

CO[C@H]1C(=O)[C@]2(C)[C@@H](OC)C[C@H]3OC[C@@]3(OC(C)=O)[C@H]2[C@H](OC(=O)c2ccccc2)[C@]2(O)C[C@H](OC(=O)[C@H](O)[C@@H](NC(=O)OC(C)(C)C)c3ccccc3)C(C)=C1C2(C)C [free cabazitaxel, cabazitaxel]
response of cell viability to treatment: dose-responsive manner
